Experimental data as given in patent US20110281922A1, “AMIDE THIAZOLE DERIVATIVE, PREPARATION METHOD AND USES THEREOF” (TIANJIN INSTITUTE OF PHARMACEUTICAL RESEARCH, priority 2008, published 2011).
Counter-ions that a name gives are not always drawn.

Test system: ICR mice
Assay: Glucose tolerance in fasted ICR mice: serum glucose by glucose-oxidase method after intraperitoneal glucose load
Assay type: in vivo
Conditions: dose 100 mg/kg; for 0.5 h blood sugar: serum glucose 0.5 h after modeling (2 g/kg glucose i.p. 2 h after administration; 1.5 h for diamicron); for 1 h blood sugar: serum glucose 1 h after modeling (2 g/kg glucose i.p. 2 h after administration; 1.5 h for diamicron); for 2 h blood sugar: serum glucose 2 h after modeling (2 g/kg glucose i.p. 2 h after administration; 1.5 h for diamicron); for 3 h blood sugar: serum glucose 3 h after modeling (2 g/kg glucose i.p. 2 h after administration; 1.5 h for diamicron); for 4 h blood sugar: serum glucose 4 h after modeling (2 g/kg glucose i.p. 2 h after administration; 1.5 h for diamicron)
Method: 1% sodium carboxymethyl cellulose is used to formulate the sample to a suspension with the concentration of 5 mg/mL, the administration amount is 0.4 mL/20 g body weight, which is corresponding to 100 mg/kg dosage.
The health ICR mice with 20-24 g of body weight fulfill the primary standard, and the male and female of them are in equal. The animals are fasted for 16 hours, and 2 g/kg of glucose-saline solution is injected intraperitoneally at 2 h after administration (glucose is injected at 1.5 h after administration of diamicron). The blood is regularly collected from the post-glomus venous plexus in mice with capillary at 0.5 h, 1 h, 2 h, 3 h, and 4 h after modeling, centrifuged to separate the blood serum, and the content of serum glucose is measured at each of the time-point by glucose-oxidase method.

`O=C(CNCc1ccccc1)Nc1nccs1` [Compound I-1, 2-{2-[(benzyl)amino]acetyl}amino thiazole] was tested, and the “0.5 h blood sugar” value was 266.4 ± 56.9 mg/dL, the “1 h blood sugar” value was 182.3 ± 57.6 mg/dL and the “2 h blood sugar” value was 88.2 ± 17.6 mg/dL. For the same compound, the “3 h blood sugar” value was 60.0 ± 15.6 mg/dL and the “4 h blood sugar” value was 52.3 ± 28.1 mg/dL.
With `O=C(CNCc1ccccc1Cl)Nc1nc(Br)cs1` [Compound I-2, 4-bromo-2-{2-[(2-chlorobenzyl)amino]acetyl}amino thiazole] the “0.5 h blood sugar” value was 199.2 ± 37.6 mg/dL, the “1 h blood sugar” value was 153.3 ± 62.7 mg/dL and the “2 h blood sugar” value was 93.3 ± 48.7 mg/dL. For the same compound, the “3 h blood sugar” value was 58.2 ± 29.0 mg/dL and the “4 h blood sugar” value was 60.0 ± 18.2 mg/dL.
`Cc1csc(NC(=O)CNCc2cccs2)n1` [Compound I-6, 4-methyl-2-{2-[(thienyl-2-methyl)amino]acetyl}amino thiazole] was tested, and the “0.5 h blood sugar” value was 240.1 ± 41.1 mg/dL, the “1 h blood sugar” value was 186.8 ± 45.9 mg/dL and the “2 h blood sugar” value was 113.6 ± 30.9 mg/dL. For the same compound, the “3 h blood sugar” value was 76.6 ± 48.4 mg/dL and the “4 h blood sugar” value was 88.0 ± 20.1 mg/dL.
`O=C(CNCc1sccc1Br)Nc1nc(Br)cs1` [Compound I-7, 4-bromo-2-{2-[(3-bromothienyl-2-methyl)amino]acetyl}amino thiazole] was tested, and the “0.5 h blood sugar” value was 186.0 ± 67.8 mg/dL, the “1 h blood sugar” value was 130.2 ± 37.7 mg/dL and the “2 h blood sugar” value was 100.9 ± 29.6 mg/dL. The “3 h blood sugar” value was 83.3 ± 91.8 mg/dL and the “4 h blood sugar” value was 72.1 ± 29.7 mg/dL.
With `COC(=O)c1csc(NC(=O)CNCc2scc(C)c2Br)n1` [Compound I-8, 2-{2-[(3-bromo-4-methylthienyl-2-methyl)amino]acetyl}amino thiazole-4-methyl formate] the “0.5 h blood sugar” value was 162.5 ± 20.6 mg/dL, the “1 h blood sugar” value was 102.0 ± 30.5 mg/dL and the “2 h blood sugar” value was 98.7 ± 20.5 mg/dL. For the same compound, the “3 h blood sugar” value was 62.5 ± 15.3 mg/dL and the “4 h blood sugar” value was 50.6 ± 18.9 mg/dL.
With `Cl.O=C(CNCc1ccccc1Cl)Nc1nc(Br)cs1` [Compound I-13, 4-bromo-2-{2-[(2-chlorobenzyl)amino]acetyl}amino thiazole hydrochloride] the “0.5 h blood sugar” value was 195.6 ± 78.1 mg/dL, the “1 h blood sugar” value was 166.5 ± 44.2 mg/dL and the “2 h blood sugar” value was 99.3 ± 20.9 mg/dL. For the same compound, the “3 h blood sugar” value was 68.1 ± 21.5 mg/dL and the “4 h blood sugar” value was 59.2 ± 18.3 mg/dL.
In the case of `Cc1csc(NC(=O)CNCc2cccs2)n1.Cl` [Compound I-14, 4-methyl-2-{2-[(thienyl-2-methyl)amino]acetyl}amino thiazole hydrochloride], the “0.5 h blood sugar” value is reported as 233.2 ± 18.1 mg/dL, the “1 h blood sugar” value is reported as 176.2 ± 25.2 mg/dL and the “2 h blood sugar” value is reported as 95.4 ± 46.9 mg/dL. For the same compound, the “3 h blood sugar” value was 65.3 ± 20.1 mg/dL and the “4 h blood sugar” value was 70.1 ± 15.3 mg/dL.
With `Cl.O=C(CNCc1occc1[N+](=O)[O-])Nc1nc(Br)cs1` [Compound I-15, 4-bromo-2-{2-[(3-nitrylfuranyl-2-methyl)amino]acetyl}amino thiazole hydrochloride] the “0.5 h blood sugar” value was 193.6 ± 76.4 mg/dL, the “1 h blood sugar” value was 161.5 ± 42.6 mg/dL and the “2 h blood sugar” value was 91.3 ± 20.0 mg/dL. For the same compound, the “3 h blood sugar” value was 64.1 ± 20.2 mg/dL and the “4 h blood sugar” value was 55.1 ± 14.2 mg/dL.
In the case of `Cc1ccc(S(=O)(=O)NC(=O)NN2CC3CCCC3C2)cc1` (stereo not drawn) [diamicron, reference compound], the “0.5 h blood sugar” value is reported as 211.0 ± 91.3 mg/dL, the “1 h blood sugar” value is reported as 140.3 ± 74.4 mg/dL and the “2 h blood sugar” value is reported as 103.4 ± 31.7 mg/dL. The “3 h blood sugar” value was 77.2 ± 25.8 mg/dL and the “4 h blood sugar” value was 62.3 ± 22.3 mg/dL.
